According to PubChem BioAssay AID1996:
In brackets after ≈: the same amount, converted by molar mass.

Conditions: buffer; pH 7.4; 200.0 µM

Row | SMILES | solubility kinetic [µg/mL]
1 | CC(C)CNC(=O)COC(=O)C1c2ccccc2Oc2ccccc21 | 41.4 (≈ 122 µM)
2 | O=C(O)CC(NC(=O)c1ccco1)c1ccco1 (centres undefined) | > 37.4
3 | COC(=O)C(Cc1ccccc1)NC(=O)CC(C)CC(=O)Nc1ccc(C)cc1 (centres undefined) | 14.3 (≈ 36.1 µM)
4 | O=[N+]([O-])c1ccc(Cl)c(S(=O)(=O)Nc2cccc(S(=O)(=O)NC3=NCCC3)c2)c1 | > 68.8
5 | O=C(NNC(=O)c1cccnc1Cl)c1ccc(F)cc1 | > 44.1
6 | COc1ccc(OC(C)C(=O)N(C)Cc2nc(-c3ccccc3)no2)cc1 (centres undefined) | 41 (≈ 112 µM)
7 | CC(C)NC(=S)N1CCCN(c2ncccc2[N+](=O)[O-])CC1 | > 48.5
8 | OCc1ccc(OCCCOc2cccc3cccnc23)cc1 | 30.5 (≈ 98.6 µM)
9 | Cc1ccc(C)c(C(C)NC(=O)C2CCCC2)c1 (centres undefined) | 33.2 (≈ 135 µM)
10 | CC1CCc2c(C(=O)NCc3ccco3)csc2C1 (centres undefined) | 34.9 (≈ 127 µM)
11 | O=C(COC(=O)C1CC1)NC(=O)NCc1ccccc1 | > 41.4
12 | CCOc1ccc(Nc2cc(C)nc3ccc(C)cc23)cc1 | 40 (≈ 137 µM)
13 | O=C(NCCCCc1ccccc1)c1ccccc1Cl | > 43.2
14 | CCOCCCNC(=O)c1ccc(C2SCC(=O)N2Cc2ccccc2)cc1 (centres undefined) | > 59.8
15 | CN(C)CCCNC(=O)c1cc(Br)ccc1O | 45.2 (≈ 150 µM)
16 | COc1ccc(CNC(=O)C2CCCC2)cc1 | 28.6 (≈ 123 µM)
17 | Cc1ccc(F)cc1NC(=O)N1c2ccccc2NC(=O)CC1C (centres undefined) | 42.7 (≈ 130 µM)
18 | O=C1CSC(c2ccccn2)N1c1ccccc1F (centres undefined) | 40.6 (≈ 148 µM)
19 | CC(C)COP(=O)(c1ccc(N(C)C)cc1)C(O)c1ccccc1 (centres undefined) | > 52.1
20 | CN(C)c1ccc(-c2nc3ccccc3c(=O)[nH]2)cc1 | 1.9 (≈ 7.16 µM)
21 | Cc1[nH]c(=O)[nH]c(=O)c1Sc1ccccc1[N+](=O)[O-] | 20.5 (≈ 73.4 µM)
22 | Cc1cc(C=C2C(=O)NC(=O)NC2=O)c(C)n1-c1cccnc1 | 10.6 (≈ 34.2 µM)
23 | CCOC(=O)c1nn(-c2ccc(Cl)cc2)c(C)cc1=O | > 43.9
24 | COC(=O)c1cc(COC(=O)c2nc3nc(C)cc(C)n3n2)oc1C | > 51.6

Row | SMILES | solubility kinetic [µg/mL]
25 | O=C(COC(=O)CCC(=O)c1ccc(F)cc1)NCc1ccc(Cl)cc1 | 10.6 (≈ 28.1 µM)
26 | Cc1cccc(OCC(=O)Nc2nccs2)c1C | 5.1 (≈ 19.4 µM)
27 | N#C/C(=C\Nc1ccc(Cl)cc1)S(=O)(=O)c1ccccn1 | 8.7 (≈ 27.2 µM)
28 | Cc1ccc(C)c(NC(=O)C2CCCN2C(=O)NC2CCCCC2)c1 (centres undefined) | 29 (≈ 84.4 µM)
29 | COc1ccc(NS(=O)(=O)c2cc(NC(=O)c3ccc(Cl)cc3)ccc2N2CCOCC2)cc1 | 1.5 (≈ 2.99 µM)
30 | Oc1cccnc1Sc1cccc(C(F)(F)F)c1 | 38.2 (≈ 141 µM)
31 | Cc1onc(-c2ccccc2Cl)c1C(=O)NCc1ccccc1F | > 51.7
32 | COc1ccccc1C(=O)O/N=C(\N)c1ccccn1 | > 40.7
33 | Cc1nc2ccc(OC(=O)c3ccccc3)cc2s1 | 2.9 (≈ 10.8 µM)
34 | Cc1nc(C)c(C(=O)OCC(=O)N(C)c2ccccc2)s1 | > 45.7
35 | COC(=O)c1cccc(Nc2nc(-c3ccncc3)nc3ccccc23)c1 | < 0.2
36 | Cc1cccc(OCc2nnc(SC(C)C(=O)Nc3ccc(N4CCOCC4)cc3)o2)c1 (centres undefined) | > 68.2
37 | N#Cc1ccc(OCC(O)CS(=O)(=O)c2ccc(F)cc2)cc1 (centres undefined) | > 50.3
38 | Cc1ccc(N2C(=O)CC(Sc3nccc(C)n3)C2=O)cc1 (centres undefined) | > 47
39 | CC(=O)c1ccc(NC(=S)N2CCN(c3ccccn3)CC2)cc1 | 3.1 (≈ 9.11 µM)
40 | CCOc1ccc(CCNC(=O)CCC(=O)c2cccs2)cc1OCC | > 56.3
41 | Cc1cc([N+](=O)[O-])ccc1NC(=O)CCC(=O)N1CCCCCC1 | > 50
42 | COc1ccc(NS(=O)(=O)c2cccc(C(=O)O)c2)cc1S(=O)(=O)N1CCOCC1 | > 68.5
43 | CN(C(=O)CSc1cccc[n+]1[O-])C1CCCCC1 | > 42.1
44 | CC(C)(C)OC(=O)N1Cc2ccccc2C[C@H]1C(=O)NC1CCCC1 | > 51.7
45 | CC(C)CC(OC(=O)c1nsc(Cl)c1Cl)C(=O)NC1CCCC1 (centres undefined) | 22.4 (≈ 59.1 µM)
46 | O=c1c2[nH]c3ccc(F)cc3c2ncn1CCC1=CCCCC1 | < 0.2
47 | CN1CCC(CNC(=O)Nc2ccccc2)(c2ccccc2)CC1 | > 48.5
48 | CC(C)N(CC#CC(O)(c1ccccc1)c1ccccc1)C(C)C | > 48.2

Row | SMILES | solubility kinetic [µg/mL]
49 | CCOC(=O)C(C)Sc1nc(N2CCOCC2)c2c(c1C#N)CC(C)(C)OC2 (centres undefined) | 38.8 (≈ 95.7 µM)
50 | O=C(N[C@@H](Cc1ccccc1)C(=O)N1CCN(S(=O)(=O)c2ccccc2F)CC1)c1ccco1 | 23.7 (≈ 48.8 µM)
51 | CC12CCC(=O)N1C(C(=O)Nc1cccc(F)c1)CS2 (centres undefined) | > 44.2
52 | COC(=O)c1cc(C)sc1NC(=O)CSc1ncccn1 | 44 (≈ 136 µM)
53 | CC(=O)Nc1cccc(-c2csc(Nc3ccc(Cl)cn3)n2)c1 | 0.5 (≈ 1.45 µM)
54 | Cc1ccc2nc(-c3ccc(O)cc3)oc2c1 | 1.7 (≈ 7.55 µM)
55 | Cc1ccc(NC(=O)COC(=O)c2cc(=O)c3ccccc3o2)c(Br)c1 | > 62.4
56 | C=CCN(CC(=O)NC1CC1)S(=O)(=O)c1cccc(C(F)(F)F)c1 | > 54.4
57 | CCC(=O)Nc1ccc(N/C(N)=N/c2nc(C)cc(C)n2)cc1 | 36.1 (≈ 116 µM)
58 | COc1ccccc1/C=C/C(=O)OCC(=O)c1cc(C)n(C)c1C | 7.9 (≈ 24.1 µM)
59 | COc1ccc(C(=O)Nc2ccccc2N2CCCC2)cc1 | 25.6 (≈ 86.4 µM)
60 | O=Cc1c(NCc2ccccc2)c2ccccc2[nH]c1=O | 20.7 (≈ 74.4 µM)
61 | CCOC(=O)c1c(-c2ccc(C)o2)csc1NC(=O)CN1CCC(C(N)=O)CC1 | 31 (≈ 73.9 µM)
62 | O=c1[nH]cc(NCCc2ccccc2)c(=O)[nH]1 | > 34.7
63 | O=C1CC(N2CCC(c3nc4ccccc4o3)CC2)C(=O)N1 (centres undefined) | 43.1 (≈ 144 µM)
64 | CCCNC(=S)N1CCC(C(=O)c2ccc(Cl)cc2)CC1 | 2.2 (≈ 6.77 µM)
65 | N#Cc1c(N)nc(Sc2ccc(Cl)cc2)c(C#N)c1-c1ccccc1Cl | < 0.2
66 | CC(=O)Nc1ccc(NC(=O)C(C)OC(=O)C2CCCC2)cc1 (centres undefined) | > 47.8
67 | Cc1ccc(N2C(=O)CCC(C(=O)O)C2c2cccs2)cc1 (centres undefined) | 46.3 (≈ 147 µM)
68 | O=C(CSc1nc2ccccc2c(=O)n1CCCN1CCOCC1)Nc1ccccc1OC(F)F | > 75.7
69 | O=C1C(Cc2ccc3[nH]ccc3c2)NC(=S)N1c1ccccc1 (centres undefined) | > 48.2
70 | FC(F)(F)C1=Nc2cccc3cccc(c23)N1 | 13.5 (≈ 57.2 µM)
71 | COc1ccc(NCc2cccnc2)cc1 | 26.8 (≈ 125 µM)
72 | CC(=O)Nc1ccc(Sc2ccccc2C(=O)O)cn1 | > 43.2

Row | SMILES | solubility kinetic [µg/mL]
73 | Cc1csc2c(N3CCCCC3)ncnc12 | > 35
74 | COC(=O)c1ccc(OCC(=O)NCCC2=CCCCC2)c(OC)c1 | > 52.1
75 | CCOC(=O)N1CCN(C(=O)Nc2ccccc2)CC1 | > 41.6
76 | CC(C(=O)N1CCN(c2ccccc2F)CC1)c1ccc([N+](=O)[O-])cc1 (centres undefined) | 38.8 (≈ 109 µM)
77 | CC(=O)c1cc(CN2CCN(C(C)C)C(CCO)C2)cs1 (centres undefined) | 35.7 (≈ 115 µM)
78 | CNC(=O)O/N=C(\N)Cc1csc2ccc(Cl)cc12 | 44.1 (≈ 148 µM)
79 | CCc1nccn1S(=O)(=O)c1ccccc1[N+](=O)[O-] | > 42.2
80 | N#CC1(NC(=O)CN2CCc3ccccc3C2)CCCC1 | > 42.5
81 | Cc1ccc(NC(=O)CCSc2nnc(C)o2)cc1 | > 41.6
82 | Cc1ccc(CONC(=O)c2ccc(OC(F)F)cc2)cc1 | 9.5 (≈ 30.9 µM)
83 | O=C1N=C(N2CCOCC2)S/C1=C\c1cccs1 | > 42.1
84 | CN=C1S/C(=C\c2ccc(O)c(Br)c2)C(=O)N1C | 16.7 (≈ 51 µM)
85 | CC1CCCCC1NC(=O)CNC(=O)c1cccs1 (centres undefined) | > 42.1
86 | Cc1[nH]c2ccccc2c1SCC(=O)N1CCCCC1 | 40.4 (≈ 140 µM)
87 | CN(C)c1ccc(SC#N)cc1 | 4.2 (≈ 23.6 µM)
88 | Cc1ccc2[nH]cc(/C=C/c3cc[n+](C)cc3)c2c1.[I-] | > 56.4
89 | COc1ccc(CC(=O)Nc2cc(C)ccn2)cc1OC | 27.7 (≈ 96.7 µM)
90 | CC(C)C(NCC(=O)Nc1ccccc1C(=O)NC1CC1)c1ccccc1 (centres undefined) | > 54.8
91 | COc1ccc(S(=O)(=O)N2CC(=O)Nc3ccccc32)cc1Cl | > 52.9
92 | CC1CCN(C(=O)c2cc3ccccc3cc2O)CC1 | > 40.4
93 | CC#CC[N+](C)(C)CCCCCC.[Cl-] | 27.8
94 | CSc1ccccc1C(=O)Nc1cccc([N+](=O)[O-])c1 | 28.2 (≈ 97.8 µM)
95 | COC(=O)c1ccc(NC(=S)NC(=O)c2cccnc2)cc1 | 3.7 (≈ 11.7 µM)
96 | COc1ccc(CC(=O)O/N=C(\N)c2ccncc2)cc1 | 39.9 (≈ 140 µM)

Row | SMILES | solubility kinetic [µg/mL]
97 | Nc1ccn([C@H]2C[C@H](O)[C@@H](CO)O2)c(=O)n1.O | > 36.8
98 | C=CCSc1nnc(NC(=O)C2=COCCO2)s1 | > 42.8
99 | COc1ccc(C(C)=O)cc1CC(=O)Nc1ccc2c(c1)CCC2 | 7.9 (≈ 24.4 µM)
100 | Cc1cccc(/N=C/C2=C(O)CC(C)(C)CC2=O)n1 | > 38.7
101 | Clc1cccc(Cl)c1-c1noc(-c2ccno2)n1 | 28.6 (≈ 101 µM)
102 | Cc1cc(OCC(=O)Nc2ccc3oc(=O)ccc3c2)ccc1Cl | 2.4 (≈ 6.98 µM)
103 | O=C1CC(=O)N(Cc2ccccc2)C(=S)N1 | > 35.1
104 | O=CN1CCN(C(=O)c2ccc3c(c2)OCO3)CC1 | > 39.3
105 | COc1ccc(C(=O)O)cc1S(=O)(=O)N(C)CCc1ccccn1 | > 52.6
106 | Cc1sc2ncnc(Nc3ccc(O)cc3)c2c1C | 1.7 (≈ 6.27 µM)
107 | O=C(/C=C/Nc1ccc(S(=O)(=O)Nc2ncccn2)cc1)c1cccs1 | 6.7 (≈ 17.3 µM)
108 | Cc1noc2ncnc(Oc3cc(Cl)ccc3Cl)c12 | < 0.2
109 | COc1ccc2ccn(S(=O)(=O)c3ccccc3)c2c1 | 2.9 (≈ 10.1 µM)
110 | Cc1ccc(Sc2ncccc2N)cc1 | 32.2 (≈ 149 µM)
111 | Cc1cnc(C(=O)OCC(=O)c2ccc(C)s2)cn1 | 41.1 (≈ 149 µM)
112 | Cc1cccc(C(=O)OCC(=O)N2CC(C)CC(C)C2)c1C (centres undefined) | > 45.5
113 | CCc1cc2c(N[C@@H](Cc3ccccc3)C(=O)O)ncnc2s1 | > 49.1
114 | CCN(CC)C(=O)CN(C#N)c1nc(Cl)nc(N(C)C)n1 | 41.3 (≈ 132 µM)
115 | CC(C)N=c1cc2n(-c3ccc(Cl)cc3)c3ccccc3nc-2cc1Nc1ccc(Cl)cc1 | 0.3 (≈ 0.634 µM)
116 | CC(C)[C@H](NC(N)=O)C(=O)Nc1ccc(OCc2ccccc2)cc1 | 3 (≈ 8.79 µM)
117 | NC(=O)C1CCN(C(=O)CNC(=O)c2ccccc2)CC1 | > 43.4
118 | CCOc1ccc2c(c1)c(C(C)=O)c(C)n2Cc1ccco1 | < 0.6
119 | CN(Cc1ccc(F)cc1)Cc1nc(CCc2ccccc2)no1 | 5.7 (≈ 17.5 µM)
